Results from article PMC8348780, “Preparation and Evaluation of Novel Folate Isonitrile ^99mTc Complexes as Potential Tumor Imaging Agents to Target Folate Receptors” (Molecules, 2021).

Columns and labels:
[1] = Stability in mouse serum at 37 °C (RCP by radio-HPLC); format: in vitro ADME; details: 4 h
Protocol: (§1) The complexes were determined by ITLC/SG of the ACD system and radio-HPLC. The ITLC/SG trip was cut into 10 equal parts, and radioactive counting of ITLC strips was determined by a γ-counter. ITLC results of both complexes were as follows: in ACD solution, [^99mTc]Tc-CN5FA and [^99mTc]Tc-CNPFA stayed at the origin (Rf = 0–0.1), while ^99mTcO4^− (Rf = 0.9–1.0) and ^99mTcO2·nH2O (Rf = 0.8–1.0) were moved to the front. Radio-HPLC was analyzed by a mobile phase system consisting of 0.1% TFA water (solvent A) and 0.1% TFA acetonitrile (solvent B) with a gradient of 0−2 min 10% B, 2−5 min 10%−90% B, 10−20 min 90% B, and 20−25 min 90%−10% B (system B) at a flow rate of 1 mL/min. All experiments were performed in triplicate.
(§2) The stability of [^99mTc]Tc-CN5FA and [^99mTc]Tc-CNPFA in vitro was evaluated by measuring the RCP of the complexes. Stability in saline was achieved by holding the solution at room temperature for 4 h. Stability in the serum was achieved by mixing 100 μL of [^99mTc]Tc-CN5FA or [^99mTc]Tc-CNPFA with 200 μL of mouse serum at 37 °C for 4 h. After precipitation using acetonitrile, centrifugation, and concentration, the solutions were analyzed by radio-HPLC.

[2] = Partition coefficient, 1-octanol / phosphate buffer pH 7.4; format: physicochemical; details: 1-octanol / phosphate buffer 0.025 M
Protocol: The partition coefficient was measured as follows: 1.9 mL of phosphate buffer solution (0.025 M, pH 7.4), 2.0 mL of 1-octanol, and 0.1 mL of ^99mTc-CN5FA or ^99mTc-CNPFA solution were added to the centrifuge tube, and the sample was swirled for 5 min and centrifuged for 5 min (3000 r/min). Then, the radioactivity counts of the two phases were measured by taking 0.1 mL from the organic phase and the water phase. The partition coefficient P was calculated. The final partition coefficient was expressed as log P ± SD.

[3] = test system: KB tumor-bearing mice; test: Biodistribution study in KB tumor-bearing mice; format: in vivo, BALB/c nude mice; details: for Tumor uptake: KB tumor
Protocol: The biodistribution experiments were divided into normal groups and inhibition groups (n = 3), in which the inhibition group was injected with inhibitor (about 4 × 10^4 µg/kg) 30 min in advance. The KB tumor-bearing mice were decapitated 30 and 120 min after the tail vein injection of 0.1 mL labeled solution (about 7.4 × 10^4 Bq). The heart, liver, lung, kidney, spleen, stomach, bone, muscle, intestine, tumor, blood, and other related tissues and organs were wiped clean and weighed, and the radioactivity count was measured. Each tissue per gram of injection dose (%ID/g) was calculated.

[4] = target: T1, folate receptor (KB cells) (Homo sapiens, UniProt P15328); test: In vitro competitive binding with KB cells; details: 37 °C, 2 h, competitive binding with inhibitor
T1 construct: endogenous in cells; host or cells: KB cells
T1 sequence (P15328 25-257): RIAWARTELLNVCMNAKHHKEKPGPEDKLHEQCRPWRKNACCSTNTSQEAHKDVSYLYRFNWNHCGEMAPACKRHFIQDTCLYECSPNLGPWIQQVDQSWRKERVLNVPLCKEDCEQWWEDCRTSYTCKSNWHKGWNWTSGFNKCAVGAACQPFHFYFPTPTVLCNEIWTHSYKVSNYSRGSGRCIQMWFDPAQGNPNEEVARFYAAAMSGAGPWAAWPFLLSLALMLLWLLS
Protocol: KB cells were cultured with FFRPMI 1640 medium 24 h in advance on a 48-well plate with 5 × 10^4 cells per well. The labeling solution was diluted to 5 μCi/mL with the same medium after growing, and the inhibitor was prepared at different concentrations. The 48-well plates were divided into eight groups, and each group was incubated with 100 μL of inhibitor solution, 100 μL of diluted labeled solution (5 μCi/mL), and 200 μL of medium at 37 °C for 2 h.
After removing the cell plate from the incubator, the medium was removed, and the cells were washed with PBS (0.1 M, pH 7.4). The washed cells were lysed with NaOH (1 M) for 5 min. Pyrolysates were collected in the hoses, and the radioactivity count of each hose was measured by a γ-counter. The data were analyzed with GraphPad Prism 5.0 and nonlinearly fit to the log IC50 ± SD value.

[5] = Stability in saline / radiolabeling solution at room temperature (RCP by radio-HPLC); format: physicochemical; details: 4 h
Protocol: as §1, §2

[6] = test system: KB tumor-bearing mice; test: SPECT/CT imaging study in KB tumor-bearing mice; format: in vivo, BALB/c nude mice; details: 2 h post injection, about 18.5 MBq i.v.
Protocol: The SPECT/CT imaging experiments were also divided into a normal group and an inhibition group (n = 3). The labeled solution (about 18.5 MBq) was injected into the tail vein of nude mice bearing KB tumor. The inhibition group was injected with 100 µg FA (about 4 × 10^4 µg/kg) 30 min in advance. After 2 h, the SPECT/CT scan was performed in anesthetized mice by using 1.5% isoflurane. The SPECT acquisition (peak value 140 keV, 20% width, 90° rotation, MMP 919 Collimator) was performed after 4 min of CT scanning (512 views, 2 × 2 binding, 75 kV, exposure time 230 ms). SPECT/CT images were made using HiSPECT software and vivoquant 2.5 software.

[7] = 2 h p.i., block: FA about 4 × 10^4 µg/kg 30 min in advance

- RCP after incubation [1]: more than 95%
- log P [2]: −2.28 ± 0.02
- T/B (tumor/blood ratio) ([3]; 0.5 h p.i.): 1.02
- T/M (tumor/muscle ratio) ([3]; 0.5 h p.i.): 2.82
- Blood uptake ([3]; 0.5 h p.i., i.v., n = 3): 4.08 ± 0.54 %ID/g
- Bone uptake ([3]; 0.5 h p.i., i.v., n = 3): 1.77 ± 0.06 %ID/g
- Heart uptake ([3]; 0.5 h p.i., i.v., n = 3): 1.92 ± 0.06 %ID/g
- Intestines uptake ([3]; 0.5 h p.i., i.v., n = 3): 4.98 ± 1.57 %ID/g
- Kidney uptake ([3]; 0.5 h p.i., i.v., n = 3): 81.30 ± 4.69 %ID/g
- Liver uptake ([3]; 0.5 h p.i., i.v., n = 3): 15.84 ± 1.19 %ID/g
- Lung uptake ([3]; 0.5 h p.i., i.v., n = 3): 4.01 ± 0.30 %ID/g
- Muscle uptake ([3]; 0.5 h p.i., i.v., n = 3): 1.48 ± 0.07 %ID/g
- Spleen uptake ([3]; 0.5 h p.i., i.v., n = 3): 3.65 ± 0.72 %ID/g
- Stomach uptake ([3]; 0.5 h p.i., i.v., n = 3): 6.67 ± 0.73 %ID/g
- Thyroid uptake ([3]; 0.5 h p.i., i.v., n = 3): 0.08 ± 0.02 %ID
- T/B (tumor/blood ratio) ([3]; 2 h p.i.): 1.73
- T/M (tumor/muscle ratio) ([3]; 2 h p.i.): 3.01
- Blood uptake [3, 7]: 1.97 ± 0.34 %ID/g
- Bone uptake [3, 7]: 1.02 ± 0.10 %ID/g
- Heart uptake [3, 7]: 0.81 ± 0.12 %ID/g
- Intestines uptake [3, 7]: 1.70 ± 0.22 %ID/g
- Kidney uptake [3, 7]: 37.60 ± 2.46 %ID/g
- Liver uptake [3, 7]: 10.88 ± 1.03 %ID/g
- Lung uptake [3, 7]: 2.11 ± 0.28 %ID/g
- Muscle uptake [3, 7]: 0.51 ± 0.09 %ID/g
- Spleen uptake [3, 7]: 3.30 ± 0.66 %ID/g
- Stomach uptake [3, 7]: 2.18 ± 0.22 %ID/g
- Thyroid uptake [3, 7]: 0.05 ± 0.01 %ID
- Blood uptake ([3]; 2 h p.i., i.v., n = 3): 1.46 ± 0.03 %ID/g
- Bone uptake ([3]; 2 h p.i., i.v., n = 3): 0.79 ± 0.11 %ID/g
- Heart uptake ([3]; 2 h p.i., i.v., n = 3): 1.30 ± 0.09 %ID/g
- Intestines uptake ([3]; 2 h p.i., i.v., n = 3): 1.60 ± 0.24 %ID/g
- Kidney uptake ([3]; 2 h p.i., i.v., n = 3): 80.25 ± 1.23 %ID/g
- Liver uptake ([3]; 2 h p.i., i.v., n = 3): 10.39 ± 0.23 %ID/g
- Lung uptake ([3]; 2 h p.i., i.v., n = 3): 2.04 ± 0.06 %ID/g
- Muscle uptake ([3]; 2 h p.i., i.v., n = 3): 0.84 ± 0.04 %ID/g
- Spleen uptake ([3]; 2 h p.i., i.v., n = 3): 2.85 ± 0.26 %ID/g
- Stomach uptake ([3]; 2 h p.i., i.v., n = 3): 3.65 ± 0.75 %ID/g
- Thyroid uptake ([3]; 2 h p.i., i.v., n = 3): 0.06 ± 0.01 %ID
- Tumor uptake ([3]; 0.5 h p.i., i.v., n = 3): 4.18 ± 0.36 %ID/g
- Tumor uptake [3, 7]: 1.62 ± 0.08 %ID/g
- Tumor uptake ([3]; 2 h p.i., i.v., n = 3): 2.53 ± 0.12 %ID/g
- IC50 [4]: 3.8 ± 0.07 nM
- RCP after incubation [5]: more than 95%
Compound: [99Tc+].[C-]#[N+]CCOCCOCCOCCOCCC(=O)NCCNC(=O)CC[C@H](NC(=O)c1ccc(NCc2cnc3nc(N)[nH]c(=O)c3n2)cc1)C(=O)O.[C-]#[N+]CCOCCOCCOCCOCCC(=O)NCCNC(=O)CC[C@H](NC(=O)c1ccc(NCc2cnc3nc(N)[nH]c(=O)c3n2)cc1)C(=O)O.[C-]#[N+]CCOCCOCCOCCOCCC(=O)NCCNC(=O)CC[C@H](NC(=O)c1ccc(NCc2cnc3nc(N)[nH]c(=O)c3n2)cc1)C(=O)O.[C-]#[N+]CCOCCOCCOCCOCCC(=O)NCCNC(=O)CC[C@H](NC(=O)c1ccc(NCc2cnc3nc(N)[nH]c(=O)c3n2)cc1)C(=O)O.[C-]#[N+]CCOCCOCCOCCOCCC(=O)NCCNC(=O)CC[C@H](NC(=O)c1ccc(NCc2cnc3nc(N)[nH]c(=O)c3n2)cc1)C(=O)O.[C-]#[N+]CCOCCOCCOCCOCCC(=O)NCCNC(=O)CC[C@H](NC(=O)c1ccc(NCc2cnc3nc(N)[nH]c(=O)c3n2)cc1)C(=O)O [[^99mTc]Tc-CNPFA]
- Visualization of tumor lesions by SPECT/CT [6]: clearly visualized
